# Laboratory results from PubChem BioAssay (NCI).
# Values joined by “and” are separate entries in the source; they are usually repeats but may differ in a detail not shown here. Equal values may be shown once.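 Step 1: Grow cells in 96-well plates. Step 2: Expose to compound for 48 hours at 5 concentrations. Step 3: Interpolate endpoints linearly; if unreached, use highest concentration. The concentration for 50% growth inhibition is given as GI50. At the TGI there is no net growth.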
# Tested on: DU-145 prostate
# Experiment: NCI-60 cell line screen, 48 h
SMILES,TGI,GI50 [µg/mL]
CC(=O)OCC1OC(n2c3c(cc(C#N)c2=S)CCCC3)C(OC(C)=O)C(OC(C)=O)C1OC(C)=O (stereo unspecified),> 100 µM,
N#[N+]c1ccc(Nc2ccccc2)cc1,> 50 µg/mL,> 50
COC(=O)c1c(O)ccc2c1c1cc3ccccc3c(O)c1n2CCc1ccc(OC)c(OC)c1,> 100 µM,
Nc1ccccc1C(=O)N=Nc1c(O)[nH]c2ccccc12,> 100 µM,
COc1ccc2nc3cc(Cl)ccc3c(NCCCN3CCN(CCCNc4ccc5nnn6c7ccccc7c(=O)c4c56)CC3)c2c1,> 25 µM,
Cn1c(=O)c2c(nc(N/N=C/c3ccccc3C(=O)O)n2C)n(C)c1=O,> 100 µM,

# Tested on: SNB-19 CNS
# Experiment: NCI-60 cell line screen, 48 h
SMILES,GI50,TGI
CC(=O)OCC1OC(n2c3c(cc(C#N)c2=S)CCCC3)C(OC(C)=O)C(OC(C)=O)C1OC(C)=O (stereo unspecified),> 100 µM and 21.5 µM,> 100 µM and 54.4 µM
N#[N+]c1ccc(Nc2ccccc2)cc1,> 50 µg/mL,> 50 µg/mL
COC(=O)c1c(O)ccc2c1c1cc3ccccc3c(O)c1n2CCc1ccc(OC)c(OC)c1,,> 100 µM
Nc1ccccc1C(=O)N=Nc1c(O)[nH]c2ccccc12,,> 100 µM
COc1ccc2nc3cc(Cl)ccc3c(NCCCN3CCN(CCCNc4ccc5nnn6c7ccccc7c(=O)c4c56)CC3)c2c1,,> 25 µM
Cn1c(=O)c2c(nc(N/N=C/c3ccccc3C(=O)O)n2C)n(C)c1=O,,> 100 µM

# Tested on: SW-620 colon
# Experiment: NCI-60 cell line screen, 48 h
SMILES,GI50,TGI
CC(=O)OCC1OC(n2c3c(cc(C#N)c2=S)CCCC3)C(OC(C)=O)C(OC(C)=O)C1OC(C)=O (stereo unspecified),44.6 µM and > 100 µM,> 100 µM
N#[N+]c1ccc(Nc2ccccc2)cc1,> 50 µg/mL,> 50 µg/mL
COc1ccc2nc3cc(Cl)ccc3c(NCCCN3CCN(CCCNc4ccc5nnn6c7ccccc7c(=O)c4c56)CC3)c2c1,,> 25 µM
Cn1c(=O)c2c(nc(N/N=C/c3ccccc3C(=O)O)n2C)n(C)c1=O,,> 100 µM

# Tested on: RPMI-8226 leukemia
# Experiment: NCI-60 cell line screen, 48 h
SMILES,GI50,TGI
CC(=O)OCC1OC(n2c3c(cc(C#N)c2=S)CCCC3)C(OC(C)=O)C(OC(C)=O)C1OC(C)=O (stereo unspecified),32.6 µM and > 100 µM,> 100 µM
N#[N+]c1ccc(Nc2ccccc2)cc1,> 50 µg/mL,> 50 µg/mL
COC(=O)c1c(O)ccc2c1c1cc3ccccc3c(O)c1n2CCc1ccc(OC)c(OC)c1,,> 100 µM
COc1ccc2nc3cc(Cl)ccc3c(NCCCN3CCN(CCCNc4ccc5nnn6c7ccccc7c(=O)c4c56)CC3)c2c1,,> 25 µM
Cn1c(=O)c2c(nc(N/N=C/c3ccccc3C(=O)O)n2C)n(C)c1=O,,> 100 µM

# Tested on: SK-MEL-28 melanoma
# Experiment: NCI-60 cell line screen, 48 h
SMILES,TGI,GI50 [µg/mL]
CC(=O)OCC1OC(n2c3c(cc(C#N)c2=S)CCCC3)C(OC(C)=O)C(OC(C)=O)C1OC(C)=O (stereo unspecified),> 100 µM,
N#[N+]c1ccc(Nc2ccccc2)cc1,> 50 µg/mL,> 50
COC(=O)c1c(O)ccc2c1c1cc3ccccc3c(O)c1n2CCc1ccc(OC)c(OC)c1,91.1 µM,
COc1ccc2nc3cc(Cl)ccc3c(NCCCN3CCN(CCCNc4ccc5nnn6c7ccccc7c(=O)c4c56)CC3)c2c1,> 25 µM,
Cn1c(=O)c2c(nc(N/N=C/c3ccccc3C(=O)O)n2C)n(C)c1=O,> 100 µM,

# Tested on: A498 renal
# Experiment: NCI-60 cell line screen, 48 h
SMILES,TGI,GI50 [µg/mL]
CC(=O)OCC1OC(n2c3c(cc(C#N)c2=S)CCCC3)C(OC(C)=O)C(OC(C)=O)C1OC(C)=O (stereo unspecified),> 100 µM,
N#[N+]c1ccc(Nc2ccccc2)cc1,> 50 µg/mL,> 50
COC(=O)c1c(O)ccc2c1c1cc3ccccc3c(O)c1n2CCc1ccc(OC)c(OC)c1,> 100 µM,
Nc1ccccc1C(=O)N=Nc1c(O)[nH]c2ccccc12,> 100 µM,
COc1ccc2nc3cc(Cl)ccc3c(NCCCN3CCN(CCCNc4ccc5nnn6c7ccccc7c(=O)c4c56)CC3)c2c1,> 25 µM,
Cn1c(=O)c2c(nc(N/N=C/c3ccccc3C(=O)O)n2C)n(C)c1=O,> 100 µM,

# Tested on: OVCAR-5 ovarian
# Experiment: NCI-60 cell line screen, 48 h
SMILES,TGI,GI50 [µg/mL]
CC(=O)OCC1OC(n2c3c(cc(C#N)c2=S)CCCC3)C(OC(C)=O)C(OC(C)=O)C1OC(C)=O (stereo unspecified),> 100 µM,
N#[N+]c1ccc(Nc2ccccc2)cc1,> 50 µg/mL,> 50
COC(=O)c1c(O)ccc2c1c1cc3ccccc3c(O)c1n2CCc1ccc(OC)c(OC)c1,> 100 µM,
Nc1ccccc1C(=O)N=Nc1c(O)[nH]c2ccccc12,> 100 µM,
COc1ccc2nc3cc(Cl)ccc3c(NCCCN3CCN(CCCNc4ccc5nnn6c7ccccc7c(=O)c4c56)CC3)c2c1,> 25 µM,
Cn1c(=O)c2c(nc(N/N=C/c3ccccc3C(=O)O)n2C)n(C)c1=O,> 100 µM,

# Tested on: M14 melanoma
# Experiment: NCI-60 cell line screen, 48 h
SMILES,TGI,GI50 [µg/mL]
CC(=O)OCC1OC(n2c3c(cc(C#N)c2=S)CCCC3)C(OC(C)=O)C(OC(C)=O)C1OC(C)=O (stereo unspecified),> 100 µM,
N#[N+]c1ccc(Nc2ccccc2)cc1,> 50 µg/mL,> 50
COC(=O)c1c(O)ccc2c1c1cc3ccccc3c(O)c1n2CCc1ccc(OC)c(OC)c1,> 100 µM,
Nc1ccccc1C(=O)N=Nc1c(O)[nH]c2ccccc12,> 100 µM,
COc1ccc2nc3cc(Cl)ccc3c(NCCCN3CCN(CCCNc4ccc5nnn6c7ccccc7c(=O)c4c56)CC3)c2c1,> 25 µM,
Cn1c(=O)c2c(nc(N/N=C/c3ccccc3C(=O)O)n2C)n(C)c1=O,> 100 µM,

# Tested on: MOLT-4 leukemia
# Experiment: NCI-60 cell line screen, 48 h
SMILES,GI50,TGI
CC(=O)OCC1OC(n2c3c(cc(C#N)c2=S)CCCC3)C(OC(C)=O)C(OC(C)=O)C1OC(C)=O (stereo unspecified),31.9 µM and > 100 µM,> 100 µM
N#[N+]c1ccc(Nc2ccccc2)cc1,> 50 µg/mL,> 50 µg/mL
COC(=O)c1c(O)ccc2c1c1cc3ccccc3c(O)c1n2CCc1ccc(OC)c(OC)c1,,> 100 µM
Nc1ccccc1C(=O)N=Nc1c(O)[nH]c2ccccc12,,> 100 µM
COc1ccc2nc3cc(Cl)ccc3c(NCCCN3CCN(CCCNc4ccc5nnn6c7ccccc7c(=O)c4c56)CC3)c2c1,,> 25 µM
Cn1c(=O)c2c(nc(N/N=C/c3ccccc3C(=O)O)n2C)n(C)c1=O,,> 100 µM

# Tested on: SF-539 CNS
# Experiment: NCI-60 cell line screen, 48 h
SMILES,GI50,TGI
CC(=O)OCC1OC(n2c3c(cc(C#N)c2=S)CCCC3)C(OC(C)=O)C(OC(C)=O)C1OC(C)=O (stereo unspecified),> 100 µM and 48.1 µM,> 100 µM
N#[N+]c1ccc(Nc2ccccc2)cc1,> 50 µg/mL,> 50 µg/mL
COC(=O)c1c(O)ccc2c1c1cc3ccccc3c(O)c1n2CCc1ccc(OC)c(OC)c1,,> 100 µM
Nc1ccccc1C(=O)N=Nc1c(O)[nH]c2ccccc12,,> 100 µM
COc1ccc2nc3cc(Cl)ccc3c(NCCCN3CCN(CCCNc4ccc5nnn6c7ccccc7c(=O)c4c56)CC3)c2c1,,8.14 µM
Cn1c(=O)c2c(nc(N/N=C/c3ccccc3C(=O)O)n2C)n(C)c1=O,,> 100 µM

# Tested on: NCI-H226 lung
# Experiment: NCI-60 cell line screen, 48 h
SMILES,TGI,GI50 [µg/mL]
CC(=O)OCC1OC(n2c3c(cc(C#N)c2=S)CCCC3)C(OC(C)=O)C(OC(C)=O)C1OC(C)=O (stereo unspecified),> 100 µM,
N#[N+]c1ccc(Nc2ccccc2)cc1,> 50 µg/mL,> 50
COC(=O)c1c(O)ccc2c1c1cc3ccccc3c(O)c1n2CCc1ccc(OC)c(OC)c1,> 100 µM,
Nc1ccccc1C(=O)N=Nc1c(O)[nH]c2ccccc12,> 100 µM,
COc1ccc2nc3cc(Cl)ccc3c(NCCCN3CCN(CCCNc4ccc5nnn6c7ccccc7c(=O)c4c56)CC3)c2c1,> 25 µM,
Cn1c(=O)c2c(nc(N/N=C/c3ccccc3C(=O)O)n2C)n(C)c1=O,> 100 µM,

# Tested on: RXF 393 renal
# Experiment: NCI-60 cell line screen, 48 h
SMILES,GI50,TGI
CC(=O)OCC1OC(n2c3c(cc(C#N)c2=S)CCCC3)C(OC(C)=O)C(OC(C)=O)C1OC(C)=O (stereo unspecified),> 100 µM and 20.4 µM,> 100 µM and 63.7 µM
N#[N+]c1ccc(Nc2ccccc2)cc1,> 50 µg/mL,> 50 µg/mL
COC(=O)c1c(O)ccc2c1c1cc3ccccc3c(O)c1n2CCc1ccc(OC)c(OC)c1,,> 100 µM
Nc1ccccc1C(=O)N=Nc1c(O)[nH]c2ccccc12,,> 100 µM
COc1ccc2nc3cc(Cl)ccc3c(NCCCN3CCN(CCCNc4ccc5nnn6c7ccccc7c(=O)c4c56)CC3)c2c1,,6.25 µM
Cn1c(=O)c2c(nc(N/N=C/c3ccccc3C(=O)O)n2C)n(C)c1=O,,> 100 µM

# Tested on: CCRF-CEM leukemia
# Experiment: NCI-60 cell line screen, 48 h
SMILES,GI50,TGI
CC(=O)OCC1OC(n2c3c(cc(C#N)c2=S)CCCC3)C(OC(C)=O)C(OC(C)=O)C1OC(C)=O (stereo unspecified),43.2 µM and > 100 µM,> 100 µM
N#[N+]c1ccc(Nc2ccccc2)cc1,> 50 µg/mL,> 50 µg/mL
COC(=O)c1c(O)ccc2c1c1cc3ccccc3c(O)c1n2CCc1ccc(OC)c(OC)c1,,> 100 µM
Nc1ccccc1C(=O)N=Nc1c(O)[nH]c2ccccc12,,> 100 µM
COc1ccc2nc3cc(Cl)ccc3c(NCCCN3CCN(CCCNc4ccc5nnn6c7ccccc7c(=O)c4c56)CC3)c2c1,,> 25 µM
Cn1c(=O)c2c(nc(N/N=C/c3ccccc3C(=O)O)n2C)n(C)c1=O,,> 100 µM

# Tested on: A549 NSCLC
# Experiment: NCI-60 cell line screen, 48 h
SMILES,TGI,GI50 [µg/mL]
CC(=O)OCC1OC(n2c3c(cc(C#N)c2=S)CCCC3)C(OC(C)=O)C(OC(C)=O)C1OC(C)=O (stereo unspecified),> 100 µM,
N#[N+]c1ccc(Nc2ccccc2)cc1,> 50 µg/mL,> 50
COC(=O)c1c(O)ccc2c1c1cc3ccccc3c(O)c1n2CCc1ccc(OC)c(OC)c1,> 100 µM,
Nc1ccccc1C(=O)N=Nc1c(O)[nH]c2ccccc12,> 100 µM,
COc1ccc2nc3cc(Cl)ccc3c(NCCCN3CCN(CCCNc4ccc5nnn6c7ccccc7c(=O)c4c56)CC3)c2c1,> 25 µM,
Cn1c(=O)c2c(nc(N/N=C/c3ccccc3C(=O)O)n2C)n(C)c1=O,> 100 µM,

# Tested on: SNB-75 CNS
# Experiment: NCI-60 cell line screen, 48 h
SMILES,GI50,TGI
CC(=O)OCC1OC(n2c3c(cc(C#N)c2=S)CCCC3)C(OC(C)=O)C(OC(C)=O)C1OC(C)=O (stereo unspecified),> 100 µM and 14.6 µM,> 100 µM and 50.4 µM
N#[N+]c1ccc(Nc2ccccc2)cc1,> 50 µg/mL,> 50 µg/mL
Nc1ccccc1C(=O)N=Nc1c(O)[nH]c2ccccc12,,81 µM
